# Tested on: 454973-116-R2-J3-PDC complex spheroid viability
# Test: Anticancer human tumor 454973-116-R2-J3-PDC patient-derived pancreatic carcinoma cell line growth inhibition [POLQ]
# Settings: for IC50: curve of first compound; for viability, T/C: stronger effect = lower value
# In short: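 Patient-derived tumour cells were co-cultured with HUVEC and mesenchymal stem cells as multicellular spheroids at 37 °C. They were treated with POLQ inhibitors (novobiocin, ART-558, RP6685) alone or combined with other agents. Top concentrations were at or near clinical Cmax (otherwise 10 microM; SN-38 at 1 microM), decreasing in half-log steps.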
# [1] = second compound 0.0316 µM, first compound 0.0316 µM
# [2] = second compound 0.0316 µM, first compound 0.1 µM
# [3] = second compound 0.0316 µM, first compound 0.316 µM
# [4] = second compound 0.0316 µM, first compound 1 µM
# [5] = second compound 0.0316 µM, first compound 3.16 µM
# [6] = second compound 0.0316 µM, first compound 10 µM
# [7] = second compound 0.1 µM, first compound 0.0316 µM
# [8] = second compound 0.1 µM, first compound 0.1 µM
# [9] = second compound 0.1 µM, first compound 0.316 µM
# [10] = second compound 0.1 µM, first compound 1 µM
# [11] = second compound 0.1 µM, first compound 3.16 µM
# [12] = second compound 0.1 µM, first compound 10 µM
# [13] = second compound 0.316 µM, first compound 0.0316 µM
# [14] = second compound 0.316 µM, first compound 0.1 µM
# [15] = second compound 0.316 µM, first compound 0.316 µM
# [16] = second compound 0.316 µM, first compound 1 µM
# [17] = second compound 0.316 µM, first compound 3.16 µM
# [18] = second compound 0.316 µM, first compound 10 µM
# [19] = second compound 1 µM, first compound 0.0316 µM
# [20] = second compound 1 µM, first compound 0.1 µM
# [21] = second compound 1 µM, first compound 0.316 µM
# [22] = second compound 1 µM, first compound 1 µM
# [23] = second compound 1 µM, first compound 3.16 µM
# [24] = second compound 1 µM, first compound 10 µM
# [25] = second compound 3.16 µM, first compound 0.0316 µM
# [26] = second compound 3.16 µM, first compound 0.1 µM
# [27] = second compound 3.16 µM, first compound 0.316 µM
# [28] = second compound 3.16 µM, first compound 1 µM
# [29] = second compound 3.16 µM, first compound 3.16 µM
# [30] = second compound 3.16 µM, first compound 10 µM
# [31] = second compound 10 µM, first compound 0.0316 µM
# [32] = second compound 10 µM, first compound 0.1 µM
# [33] = second compound 10 µM, first compound 0.316 µM
# [34] = second compound 10 µM, first compound 1 µM
# [35] = second compound 10 µM, first compound 3.16 µM
# [36] = second compound 10 µM, first compound 10 µM
# 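Also: spheroids exposed to drugs for seven days before measurement.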
# 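For viability, T/C in this document: percent viability relative to DMSO vehicle control wells taken as 100%.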
smiles,measurement,setting,value
C=CC(=O)N1CCN(c2nc(=O)n(-c3c(C)ccnc3C(C)C)c3nc(-c4c(O)cccc4F)c(F)cc23)C(C)C1 (stereo not given) + Nc1ccc(C#CCN(C(=O)Cc2ncc(C(F)(F)F)cc2C(F)(F)F)c2ccc(F)cc2)nn1,IC50,second compound 0.0316 µM,> 10 µM
same,IC50,second compound 0.1 µM,> 10 µM
same,IC50,second compound 0.316 µM,> 10 µM
same,IC50,second compound 1 µM,> 10 µM
same,IC50,second compound 3.16 µM,> 10 µM
same,IC50,second compound 10 µM,> 10 µM
same,"viability, T/C",[1],103%
same,"viability, T/C",[2],106%
same,"viability, T/C",[3],110%
same,"viability, T/C",[4],111%
same,"viability, T/C",[5],113%
same,"viability, T/C",[6],113%
same,"viability, T/C",[7],103%
same,"viability, T/C",[8],97.1%
same,"viability, T/C",[9],110%
same,"viability, T/C",[10],114%
same,"viability, T/C",[11],111%
same,"viability, T/C",[12],117%
same,"viability, T/C",[13],102%
same,"viability, T/C",[14],106%
same,"viability, T/C",[15],107%
same,"viability, T/C",[16],106%
same,"viability, T/C",[17],124%
same,"viability, T/C",[18],116%
same,"viability, T/C",[19],102%
same,"viability, T/C",[20],110%
same,"viability, T/C",[21],109%
same,"viability, T/C",[22],123%
same,"viability, T/C",[23],121%
same,"viability, T/C",[24],114%
same,"viability, T/C",[25],111%
same,"viability, T/C",[26],118%
same,"viability, T/C",[27],120%
same,"viability, T/C",[28],123%
same,"viability, T/C",[29],125%
same,"viability, T/C",[30],114%
same,"viability, T/C",[31],118%
same,"viability, T/C",[32],113%
same,"viability, T/C",[33],116%
same,"viability, T/C",[34],123%
same,"viability, T/C",[35],137%
same,"viability, T/C",[36],116%
CC(C)n1c(=O)n(C)c2cnc3cc(F)c(-c4ccc(OCCCN5CCCCC5)nc4)cc3c21 + Nc1ccc(C#CCN(C(=O)Cc2ncc(C(F)(F)F)cc2C(F)(F)F)c2ccc(F)cc2)nn1,IC50,second compound 0.0316 µM,> 10 µM
same,IC50,second compound 0.1 µM,> 10 µM
same,IC50,second compound 0.316 µM,> 10 µM
same,IC50,second compound 1 µM,> 10 µM
same,IC50,second compound 3.16 µM,> 10 µM
same,IC50,second compound 10 µM,> 10 µM
same,"viability, T/C",[1],101%
same,"viability, T/C",[2],96%
same,"viability, T/C",[3],101%
same,"viability, T/C",[4],96.7%
same,"viability, T/C",[5],102%
same,"viability, T/C",[6],75.8%
same,"viability, T/C",[7],99.3%
same,"viability, T/C",[8],100%
same,"viability, T/C",[9],103%
same,"viability, T/C",[10],115%
same,"viability, T/C",[11],99.6%
same,"viability, T/C",[12],76.1%
same,"viability, T/C",[13],102%
same,"viability, T/C",[14],102%
same,"viability, T/C",[15],117%
same,"viability, T/C",[16],103%
same,"viability, T/C",[17],101%
same,"viability, T/C",[18],83.8%
same,"viability, T/C",[19],114%
same,"viability, T/C",[20],106%
same,"viability, T/C",[21],108%
same,"viability, T/C",[22],114%
same,"viability, T/C",[23],106%
same,"viability, T/C",[24],74.7%
same,"viability, T/C",[25],111%
same,"viability, T/C",[26],113%
same,"viability, T/C",[27],105%
same,"viability, T/C",[28],114%
same,"viability, T/C",[29],101%
same,"viability, T/C",[30],83.8%
same,"viability, T/C",[31],123%
same,"viability, T/C",[32],107%
same,"viability, T/C",[33],114%
same,"viability, T/C",[34],114%
same,"viability, T/C",[35],104%
same,"viability, T/C",[36],76.9%
CCc1cc2c(N3CCc4c(cc(Cn5ccnc5)cc4-c4cn(C)nc4C(F)(F)F)C3=O)cc(C)nc2c(OC)n1 + Nc1ccc(C#CCN(C(=O)Cc2ncc(C(F)(F)F)cc2C(F)(F)F)c2ccc(F)cc2)nn1,IC50,second compound 0.0316 µM,> 10 µM
same,IC50,second compound 0.1 µM,> 10 µM
same,IC50,second compound 0.316 µM,> 10 µM
same,IC50,second compound 1 µM,> 10 µM
same,IC50,second compound 3.16 µM,> 10 µM
same,IC50,second compound 10 µM,> 10 µM
same,"viability, T/C",[1],99.6%
same,"viability, T/C",[2],87.8%
same,"viability, T/C",[3],73.5%
same,"viability, T/C",[4],72.2%
same,"viability, T/C",[5],64.4%
same,"viability, T/C",[6],56.5%
same,"viability, T/C",[7],99.1%
same,"viability, T/C",[8],88.4%
same,"viability, T/C",[9],82.6%
same,"viability, T/C",[10],74.2%
same,"viability, T/C",[11],63.2%
same,"viability, T/C",[12],56.9%
same,"viability, T/C",[13],96.2%
same,"viability, T/C",[14],91.1%
same,"viability, T/C",[15],78.9%
same,"viability, T/C",[16],79.2%
same,"viability, T/C",[17],70.8%
same,"viability, T/C",[18],55%
same,"viability, T/C",[19],97.7%
same,"viability, T/C",[20],87.3%
same,"viability, T/C",[21],81.6%
same,"viability, T/C",[22],79%
same,"viability, T/C",[23],63%
same,"viability, T/C",[24],50.9%
same,"viability, T/C",[25],101%
same,"viability, T/C",[26],95.3%
same,"viability, T/C",[27],90.8%
same,"viability, T/C",[28],84.5%
same,"viability, T/C",[29],68.3%
same,"viability, T/C",[30],59.6%
same,"viability, T/C",[31],100%
same,"viability, T/C",[32],114%
same,"viability, T/C",[33],86.3%
same,"viability, T/C",[34],78.6%
same,"viability, T/C",[35],80.1%
same,"viability, T/C",[36],56.8%
CCc1cc2c(N3CCc4c(cc(Cn5ccnc5)cc4-c4cn(C)nc4C(F)(F)F)C3=O)ccnc2c(OC)n1 + Nc1ccc(C#CCN(C(=O)Cc2ncc(C(F)(F)F)cc2C(F)(F)F)c2ccc(F)cc2)nn1,IC50,second compound 0.0316 µM,> 10 µM
same,IC50,second compound 0.1 µM,> 10 µM
same,IC50,second compound 0.316 µM,> 10 µM
same,IC50,second compound 1 µM,> 10 µM
same,IC50,second compound 3.16 µM,> 10 µM
same,IC50,second compound 10 µM,> 10 µM
same,"viability, T/C",[1],119%
same,"viability, T/C",[2],91.5%
same,"viability, T/C",[3],84.1%
same,"viability, T/C",[4],78.7%
same,"viability, T/C",[5],72.4%
same,"viability, T/C",[6],63.3%
same,"viability, T/C",[7],99%
same,"viability, T/C",[8],88.2%
same,"viability, T/C",[9],80.8%
same,"viability, T/C",[10],84.6%
same,"viability, T/C",[11],72.3%
same,"viability, T/C",[12],62.6%
same,"viability, T/C",[13],93%
same,"viability, T/C",[14],95.1%
same,"viability, T/C",[15],90.3%
same,"viability, T/C",[16],72.6%
same,"viability, T/C",[17],78%
same,"viability, T/C",[18],55.8%
same,"viability, T/C",[19],112%
same,"viability, T/C",[20],92.3%
same,"viability, T/C",[21],93.3%
same,"viability, T/C",[22],76.5%
same,"viability, T/C",[23],76.6%
same,"viability, T/C",[24],58.1%
same,"viability, T/C",[25],101%
same,"viability, T/C",[26],99.2%
same,"viability, T/C",[27],93.6%
same,"viability, T/C",[28],82.4%
same,"viability, T/C",[29],68.3%
same,"viability, T/C",[30],60.7%
same,"viability, T/C",[31],111%
same,"viability, T/C",[32],114%
same,"viability, T/C",[33],89.1%
same,"viability, T/C",[34],84.7%
same,"viability, T/C",[35],81.8%
same,"viability, T/C",[36],58.5%
COc1cc2cc(C(=O)CCC(=O)O)sc2cc1OC + Nc1ccc(C#CCN(C(=O)Cc2ncc(C(F)(F)F)cc2C(F)(F)F)c2ccc(F)cc2)nn1,IC50,second compound 0.0316 µM,> 10 µM
same,IC50,second compound 0.1 µM,> 10 µM
same,IC50,second compound 0.316 µM,> 10 µM
same,IC50,second compound 1 µM,> 10 µM
same,IC50,second compound 3.16 µM,> 10 µM
same,IC50,second compound 10 µM,> 10 µM
same,"viability, T/C",[1],96.7%
same,"viability, T/C",[2],101%
same,"viability, T/C",[3],112%
same,"viability, T/C",[4],101%
same,"viability, T/C",[5],107%
same,"viability, T/C",[6],98.9%
same,"viability, T/C",[7],98.2%
same,"viability, T/C",[8],103%
same,"viability, T/C",[9],100%
same,"viability, T/C",[10],105%
same,"viability, T/C",[11],107%
same,"viability, T/C",[12],104%
same,"viability, T/C",[13],93.8%
same,"viability, T/C",[14],101%
same,"viability, T/C",[15],107%
same,"viability, T/C",[16],104%
same,"viability, T/C",[17],111%
same,"viability, T/C",[18],94.3%
same,"viability, T/C",[19],110%
same,"viability, T/C",[20],103%
same,"viability, T/C",[21],106%
same,"viability, T/C",[22],122%
same,"viability, T/C",[23],108%
same,"viability, T/C",[24],99.2%
same,"viability, T/C",[25],118%
same,"viability, T/C",[26],110%
same,"viability, T/C",[27],113%
same,"viability, T/C",[28],109%
same,"viability, T/C",[29],116%
same,"viability, T/C",[30],107%
same,"viability, T/C",[31],115%
same,"viability, T/C",[32],114%
same,"viability, T/C",[33],118%
same,"viability, T/C",[34],117%
same,"viability, T/C",[35],119%
same,"viability, T/C",[36],105%

# Reference: PubChem BioAssay AID1963846 (Molecular Pharmacology Branch, DTP, NCI, 2024)
